Reference: PubChem BioAssay AID328 (DTP/NCI, 2004)
Several values for one entry are separate records, joined by “and”; a condition that tells them apart may be missing. Equal entries are not always repeated. Inconclusive results and toxic doses are left out.

Tested on: BDF1 mice, P388 leukemia ip, median survival T/C
Test: NCI In Vivo Anticancer Drug Screen. Data for tumor model P388 Leukemia (intraperitoneal) in B6D2F1 (BDF1) mice
Details: endpoint: median survival time, higher = longer survival
In short: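 Each value expresses how treatment altered survival: treated-mouse outcome over vehicle-mouse outcome, both groups bearing the transplanted tumour.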

[1] = dose: 50.0 mg/kg/injection, schedule: Q01DX009 (ip), vehicle: saline with Tween-80
[2] = dose: 100.0 mg/kg/injection, schedule: Q01DX009 (ip), vehicle: saline with Tween-80
[3] = dose: 200.0 mg/kg/injection, schedule: Q01DX009 (ip), vehicle: saline with Tween-80
[4] = dose: 12.5 mg/kg/injection, schedule: Q01DX009 (ip), vehicle: saline with Tween-80
[5] = dose: 25.0 mg/kg/injection, schedule: Q01DX009 (ip), vehicle: saline with Tween-80
[6] = dose: 100.0 mg/kg/injection, schedule: Q04DX003 (ip), vehicle: saline with Tween-80
[7] = dose: 200.0 mg/kg/injection, schedule: Q04DX003 (ip), vehicle: saline with Tween-80
[8] = dose: 400.0 mg/kg/injection, schedule: Q04DX003 (ip), vehicle: saline with Tween-80

Structure (SMILES): COc1cc2c(cc1OCc1ccccc1)C=CN(C(=O)c1ccccc1)C2C#N (stereo not drawn)
- T/C (dose: 25.0 mg/kg/injection, schedule: Q01DX009 (ip), vehicle: saline): 105 % of control
- T/C (dose: 25.0 mg/kg/injection, schedule: Q04DX003 (ip), vehicle: saline): 103 % of control
- T/C (dose: 50.0 mg/kg/injection, schedule: Q01DX009 (ip), vehicle: saline): 92 % of control
- T/C (dose: 50.0 mg/kg/injection, schedule: Q04DX003 (ip), vehicle: saline): 100 % of control
- T/C (dose: 100.0 mg/kg/injection, schedule: Q01DX009 (ip), vehicle: saline): 93 % of control
- T/C (dose: 100.0 mg/kg/injection, schedule: Q04DX003 (ip), vehicle: saline): 97 % of control
- T/C (dose: 200.0 mg/kg/injection, schedule: Q01DX009 (ip), vehicle: saline): 90 % of control
- T/C (dose: 200.0 mg/kg/injection, schedule: Q04DX003 (ip), vehicle: saline): 103 % of control
- T/C (dose: 400.0 mg/kg/injection, schedule: Q01DX009 (ip), vehicle: saline): 96 % of control
- T/C (dose: 400.0 mg/kg/injection, schedule: Q04DX003 (ip), vehicle: saline): 97 % of control

Structure (SMILES): COc1cc(-n2c(CCc3nc(-c4ccc(Cl)cc4)no3)n[nH]c2=S)c(OC)cc1Cl
- T/C [1]: 100 % of control
- T/C [2]: 103 % of control
- T/C [3]: 110 % of control

Structure (SMILES): CCOC(=O)c1ccc(N=CNc2ccc(C(=O)OCC)cc2)cc1
- T/C [4]: 100 % of control
- T/C [5]: 92 % of control
- T/C (dose: 25.0 mg/kg/injection, schedule: Q04DX003 (ip), vehicle: saline with Tween-80): 91 % of control
- T/C (dose: 50.0 mg/kg/injection, schedule: Q04DX003 (ip), vehicle: saline with Tween-80): 87 % of control

Structure (SMILES): O=C(Oc1cc(Cl)ccc1Cl)c1ccccc1
- T/C [1]: 122 % of control
- T/C [2]: 89 % of control
- T/C (dose: 400.0 mg/kg/injection, schedule: Q01DX009 (ip), vehicle: saline with Tween-80): 89 % of control

Structure (SMILES): S=c1nc2[nH]c3ccccc3c2n[nH]1
- T/C (dose: 6.25 mg/kg/injection, schedule: Q01DX009 (ip), vehicle: saline with Tween-80): 100 % of control
- T/C [4]: 97 % of control
- T/C [5]: 88 % of control
- T/C [1]: 96 % of control
- T/C [2]: 98 % of control
- T/C [3]: 96 % of control

Structure (SMILES): O=C(Nc1ccc(C2=NCCN2)cc1)C1CCC(C(=O)Nc2ccc(C3=NCCN3)cc2)CC1 (stereo not drawn)
- T/C [6]: 150 % of control
- T/C [7]: 179 % of control
- T/C (dose: 264.0 mg/kg/injection, schedule: Q04DX003 (ip), vehicle: saline with Tween-80): 228 % of control and 200 % of control
- T/C [8]: 225 % of control and 229 % of control and 240 % of control
- T/C (dose: 600.0 mg/kg/injection, schedule: Q04DX003 (ip), vehicle: saline with Tween-80): 240 % of control and 245 % of control

Structure (SMILES): O=CC(=O)c1ccc(O)cc1
- T/C (dose: 50.0 mg/kg/injection, schedule: Q04DX003 (ip), vehicle: saline sonified): 109 % of control
- T/C (dose: 300.0 mg/kg/injection, schedule: Q04DX003 (ip), vehicle: saline with Tween-80): 86 % of control

Structure (SMILES): CC(=O)OCC1OC(=O)C(C)N(C)C(=O)CN(C)C(=O)C2C(=O)CC(C)N2C(=O)C(C(C)C)NC(=O)C1NC(=O)c1c2nc3c(C(=O)NC4C(=O)NC(C(C)C)C(=O)N5C(C)CC(OC(C)=O)C5C(=O)N(C)CC(=O)N(C)C(C(C)C)C(=O)OC4C)ccc(C)c3oc-2c(C)c(=O)c1N (stereo not drawn)
- T/C (dose: 0.05 mg/kg/injection, schedule: Q01DX009 (ip), vehicle: saline with Tween-80): 154 % of control
- T/C (dose: 0.1 mg/kg/injection, schedule: Q01DX009 (ip), vehicle: saline with Tween-80): 156 % of control
- T/C (dose: 0.2 mg/kg/injection, schedule: Q01DX009 (ip), vehicle: saline with Tween-80): 189 % of control
- T/C (dose: 0.4 mg/kg/injection, schedule: Q01DX001 (ip), vehicle: saline with Tween-80): 153 % of control
- T/C (dose: 0.4 mg/kg/injection, schedule: Q01DX009 (ip), vehicle: saline with Tween-80): 213 % of control
- T/C (dose: 0.6 mg/kg/injection, schedule: Q04DX003 (ip), vehicle: saline with Tween-80): 159 % of control
- T/C (dose: 0.8 mg/kg/injection, schedule: Q01DX001 (ip), vehicle: saline with Tween-80): 159 % of control
- T/C (dose: 0.8 mg/kg/injection, schedule: Q01DX009 (ip), vehicle: saline with Tween-80): 117 % of control
- T/C (dose: 1.2 mg/kg/injection, schedule: Q04DX003 (ip), vehicle: saline with Tween-80): 189 % of control
- T/C (dose: 1.6 mg/kg/injection, schedule: Q01DX001 (ip), vehicle: saline with Tween-80): 159 % of control
- T/C (dose: 2.4 mg/kg/injection, schedule: Q04DX003 (ip), vehicle: saline with Tween-80): 117 % of control
- T/C (dose: 3.2 mg/kg/injection, schedule: Q01DX001 (ip), vehicle: saline with Tween-80): 189 % of control

Structure (SMILES): CN(C)c1ccc(P(c2ccc(N(C)C)cc2)c2ccc(N(C)C)cc2)cc1
- T/C (dose: 3.12 mg/kg/injection, schedule: Q01DX009 (ip), vehicle: Klucel (hydroxypropylcellulose) (HPC)): 96 % of control
- T/C (dose: 6.25 mg/kg/injection, schedule: Q01DX009 (ip), vehicle: Klucel (hydroxypropylcellulose) (HPC)): 88 % of control
- T/C (dose: 12.5 mg/kg/injection, schedule: Q01DX009 (ip), vehicle: Klucel (hydroxypropylcellulose) (HPC)): 88 % of control
- T/C (dose: 12.5 mg/kg/injection, schedule: Q04DX003 (ip), vehicle: Klucel (hydroxypropylcellulose) (HPC)): 91 % of control
- T/C (dose: 25.0 mg/kg/injection, schedule: Q04DX003 (ip), vehicle: Klucel (hydroxypropylcellulose) (HPC)): 113 % of control
- T/C (dose: 50.0 mg/kg/injection, schedule: Q04DX003 (ip), vehicle: Klucel (hydroxypropylcellulose) (HPC)): 86 % of control

Structure (SMILES): O=C(OC(=O)c1ccc([N+](=O)[O-])cc1)c1ccc([N+](=O)[O-])cc1
- T/C (dose: 100.0 mg/kg/injection, schedule: Q04DX003 (sc), vehicle: olive oil, sesame oil, peanut oil): 110 % of control
- T/C (dose: 200.0 mg/kg/injection, schedule: Q04DX003 (sc), vehicle: olive oil, sesame oil, peanut oil): 105 % of control
- T/C (dose: 400.0 mg/kg/injection, schedule: Q04DX003 (sc), vehicle: olive oil, sesame oil, peanut oil): 105 % of control

Structure (SMILES): Cc1cc(N(C)C)c2ccc3ccccc3c2n1
- T/C [1]: 93 % of control
- T/C [2]: 95 % of control
- T/C [3]: 101 % of control

Structure (SMILES): CCOC(=O)CCC(NC(=O)Cc1ccc(NC(=O)C(F)(F)F)cc1)C(=O)OCC (stereo not drawn)
- T/C (dose: 100.0 mg/kg/injection, schedule: Q01DX009 (ip), vehicle: Klucel (hydroxypropylcellulose) (HPC)): 100 % of control
- T/C (dose: 200.0 mg/kg/injection, schedule: Q01DX009 (ip), vehicle: Klucel (hydroxypropylcellulose) (HPC)): 95 % of control
- T/C (dose: 400.0 mg/kg/injection, schedule: Q01DX009 (ip), vehicle: Klucel (hydroxypropylcellulose) (HPC)): 104 % of control

Structure (SMILES): CCCCCCCCCCCCOc1ccc(C)cc1
- T/C [6]: 109 % of control
- T/C [7]: 100 % of control
- T/C [8]: 100 % of control

Structure (SMILES): Cc1ccccc1C[P+](c1ccccc1)(c1ccccc1)c1ccccc1
- T/C (dose: 0.39 mg/kg/injection, schedule: Q01DX009 (ip), vehicle: Klucel (hydroxypropylcellulose) (HPC)): 100 % of control
- T/C (dose: 0.39 mg/kg/injection, schedule: Q04DX003 (ip), vehicle: Klucel (hydroxypropylcellulose) (HPC)): 100 % of control
- T/C (dose: 0.78 mg/kg/injection, schedule: Q01DX009 (ip), vehicle: Klucel (hydroxypropylcellulose) (HPC)): 108 % of control
- T/C (dose: 0.78 mg/kg/injection, schedule: Q04DX003 (ip), vehicle: Klucel (hydroxypropylcellulose) (HPC)): 122 % of control
- T/C (dose: 1.56 mg/kg/injection, schedule: Q01DX009 (ip), vehicle: Klucel (hydroxypropylcellulose) (HPC)): 112 % of control
- T/C (dose: 1.56 mg/kg/injection, schedule: Q04DX003 (ip), vehicle: Klucel (hydroxypropylcellulose) (HPC)): 113 % of control
- T/C (dose: 3.12 mg/kg/injection, schedule: Q01DX009 (ip), vehicle: saline): 150 % of control
- T/C (dose: 3.5 mg/kg/injection, schedule: Q04DX003 (ip), vehicle: Klucel (hydroxypropylcellulose) (HPC)): 104 % of control
- T/C (dose: 13.2 mg/kg/injection, schedule: Q04DX003 (ip), vehicle: saline with Tween-80): 113 % of control
- T/C (dose: 30.0 mg/kg/injection, schedule: Q04DX003 (ip), vehicle: saline with Tween-80): 104 % of control

Structure (SMILES): O=S(=O)([O-])NC1CCCCC1.O=S(=O)([O-])NC1CCCCC1.[Hg+2].[Hg+2].[Hg+2].[O-2].[O-2]
- T/C (dose: 0.5 mg/kg/injection, schedule: Q01DX009 (ip), vehicle: Klucel (hydroxypropylcellulose) (HPC)): 99 % of control
- T/C (dose: 1.0 mg/kg/injection, schedule: Q01DX009 (ip), vehicle: Klucel (hydroxypropylcellulose) (HPC)): 111 % of control
- T/C (dose: 2.0 mg/kg/injection, schedule: Q01DX009 (ip), vehicle: Klucel (hydroxypropylcellulose) (HPC)): 111 % of control
- T/C (dose: 4.0 mg/kg/injection, schedule: Q01DX009 (ip), vehicle: Klucel (hydroxypropylcellulose) (HPC)): 121 % of control
- T/C (dose: 8.0 mg/kg/injection, schedule: Q01DX009 (ip), vehicle: Klucel (hydroxypropylcellulose) (HPC)): 101 % of control
